Test results from PMC10786919, “Design-rules for stapled peptides with in vivo activity and their application to Mdm2/X antagonists” (Nature Communications, 2024).
≈ marks a conversion by molar mass, not a printed value. Like-named read-outs stand apart in the source and are kept apart here. Positions of bridges follow the written chain, without caps; N, C: chain ends. Non-standard residues stand in square brackets, D forms with d. Residues, ends and D or L forms follow the SMILES beside them. Phe(3,4-Cl2) = N[C@@H](Cc1ccc(Cl)c(Cl)c1)C(=O)O; Lys(N3) = [N-]=[N+]=NCCCC[C@H](N)C(=O)O; R8 = C=CCCCCCC[C@@](C)(N)C(=O)O; Cba = N[C@@H](CC1CCC1)C(=O)O; S5 = C=CCCC[C@](C)(N)C(=O)O; βAla = NCCC(=O)O

Assays:
[1] = Lactate dehydrogenase (LDH) release assay; type: cell-based
Procedure, shortened: (§1)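 Membrane damage measured as lactate dehydrogenase release (CytoTox-ONE kit) from p53-responsive β-lactamase reporter HCT116 cells plated at 8000 per well. Final DMSO 0.5%; geometric mean reported from a minimum of three biological replicates.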

HCT116 cells = test: Lactate dehydrogenase (LDH) release assay; type: cell-based
Procedure, shortened: as §1

[2] = Solubility assay (kinetic solubility, PBS pH 7); type: physicochemical; conditions: for solubility kinetic: pH 7, aqueous buffer, kinetic from dmso stock, read-out: Solubility
Procedure, shortened: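 Next, measure peak areas of sample and standard. Finally, multiply their ratio by the standard concentration to obtain solubility (µM).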

in vitro = test: in vitro
Procedure, shortened: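 Azido-peptide permeability was read as loss of NanoBRET signal (donor 450 nm, acceptor 610 nm) after adding NanoBret618-azide at 10 μM final.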

[3] = Experimental LogD (partition coefficient); conditions: for logD: Partition Coeff LogD
[4] = system: CellSensor p53RE-bla HCT-116 Cell Line; conditions: 72 h
Method: The medium for CellSensor™ p53RE-bla HCT-116 cells was McCoy’s 5 A Medium (GIBCO16600-002) supplied with 10% FBS (Hyclone, SH30406.05), 100 U/100ug/ml of Pen/Strep (SolarBio, P1400) and 5 μg/ml of blasticidin (GIBCO, A11139). The medium for Ca Ski cells was RPMI1640 (Hyclone, SH3080901B) supplied with 10% FBS and 100 U/100ug/ml of Pen/Strep. All cells were kept in humidified incubators with 5% CO2 at 37 °C. Culture media was changed after one day of subculturing and cells were passed again when there was 70–80% confluence. One day before the assay, the cells were trypsinized, collected, counted and viability was determined. […] The plates were kept in humidified incubators with 5% CO2 at 37 °C overnight. Compounds were prepared as a 10 point, 3x serial dilution in 100% DMSO, starting from a top concentration of 10 mM. […] At the end of the incubation the assay plate was equilibrated at room temperature for approximately 30 minutes prior to the addition of 25 uL of CellTiter-Glo® 2.0 Reagent. The assay plate was mixed for 2 minutes on an orbital shaker to induce cell lysis. Next, the plate was incubated at room temperature for 10 minutes to stabilize the luminescent signal prior to recording the luminescence on a plate reader.

[5] = Nanoclick permeability assay EC50
[6] = 0% FBS 4Hr, read-out: LDH: Cytotoxicity assay: EC50
[7] = 10% FBS 4Hr, read-out: LDH: Cytotoxicity assay: EC50

| SMILES | EC50 ([1]; LDH: Cytotoxicity assay: EC50) [µM] | LDH: Cytotoxicity assay: % Effect (HCT116 cells) [%] | solubility kinetic ([2]; pH 7, PBS) [µM] | cell entry EC50 (in vitro; [5]) [µM] | EPSA (physchem) [A^2] | logD ([3]; not stated) | EC50 [1, 6] [µM] | EC50 [1, 7] [µM] | LDH: Cytotoxicity assay: % Effect (HCT116 cells; 0% FBS 4Hr) [%] | LDH: Cytotoxicity assay: % Effect (HCT116 cells; 10% FBS 4Hr) [%] | cell entry EC50 (in vitro) [µM] | logD ([3]; experimental) | Solubility ([2]; pH 7, PBS) | Partition Coeff LogD [3] | LDH: Cytotoxicity assay: % Effect (HCT116 cells; 0% FBS 16Hr) [%] | EC50 ([1]; LDH: Cytotoxicity assay EC50) [µM] | Solubility [2] | EC50 [4] [µM] | EC50 ([1]; 0% FBS 16Hr, read-out: LDH: Cytotoxicity assay: EC50) [µM] |
| --- | --- | --- | --- | --- | --- | --- | --- | --- | --- | --- | --- | --- | --- | --- | --- | --- | --- | --- | --- |
| CC(=O)N[C@@H](CCCCN=[N+]=[N-])C(=O)NCCC(=O)N[C@@H](CO)C(=O)N[C@H](C(=O)N[C@@H](Cc1ccccc1)C(=O)N[C@]1(C)CCCCCCC=CCCC[C@@](C)(C(=O)N[C@@H](CO)C(=O)N[C@@H](CO)C(=O)N[C@@H](CO)C(N)=O)NC(=O)[C@H](CC2CCC2)NC(=O)[C@H](CCC(N)=O)NC(=O)[C@H](CO)NC(=O)[C@H](Cc2c[nH]c3ccccc23)NC(=O)[C@H](Cc2ccc(O)cc2)NC(=O)[C@H](CO)NC1=O)[C@@H](C)O [MP-667] (Ac-[Lys(N3)][βAla]STF[R8]SYWSQ[Cba][S5]SSS-NH2; staple 6-13) | > 50.6 | 2.286 | 2 (≈ 3.9 µg/mL) | 2.23 | 208 | 2.5 | – | – | – | – | – | – | – | – | – | – | – | – | – |
| CC(=O)N[C@@H](CCCCN=[N+]=[N-])C(=O)NCCC(=O)NCC(=O)N[C@H](C(=O)N[C@@H](Cc1ccccc1)C(=O)N[C@]1(C)CCCCCCC=CCCC[C@@](C)(C(=O)N[C@@H](CO)C(=O)N[C@@H](C)C(=O)N[C@@H](C)C(N)=O)NC(=O)[C@H](CC2CCC2)NC(=O)[C@H](CCC(N)=O)NC(=O)CNC(=O)[C@H](Cc2c[nH]c3ccccc23)NC(=O)[C@H](Cc2ccc(O)cc2)NC(=O)CNC1=O)[C@@H](C)O [MP-692] (Ac-[Lys(N3)][βAla]GTF[R8]GYWGQ[Cba][S5]SAA-NH2; staple 6-13) | > 50.6 | 2.18 | 2 (≈ 3.66 µg/mL) | 1.39 | 200 | 2.73 | – | – | – | – | – | – | – | – | – | – | – | – | – |
| CC(=O)N[C@@H](CCCCN=[N+]=[N-])C(=O)NCCC(=O)N[C@@H](CC(C)C)C(=O)N[C@H](C(=O)N[C@@H](Cc1ccccc1)C(=O)N[C@]1(C)CCCCCCC=CCCC[C@@](C)(C(=O)N[C@@H](CO)C(=O)N[C@@H](C)C(=O)N[C@@H](C)C(N)=O)NC(=O)[C@H](CC2CCC2)NC(=O)[C@H](CCC(N)=O)NC(=O)[C@H](CC(C)C)NC(=O)[C@H](Cc2c[nH]c3ccccc23)NC(=O)[C@H](Cc2ccc(O)cc2)NC(=O)[C@H](CC(C)C)NC1=O)[C@@H](C)O [MP-693, AZIDE-ATSP-7041 (E5L, A8L)] (Ac-[Lys(N3)][βAla]LTF[R8]LYWLQ[Cba][S5]SAA-NH2; staple 6-13) | – | – | < 1 | – | 196 | 4.68 | > 50.6 | > 50 | -2.781 | 12.6 | 0.29 | 2.92 | – | – | – | – | – | – | – |
| CC(=O)N[C@@H](CCCCN=[N+]=[N-])C(=O)NCCC(=O)N[C@@H](CC(C)C)C(=O)N[C@H](C(=O)N[C@@H](Cc1ccccc1)C(=O)N[C@]1(C)CCCCCCC=CCCC[C@@](C)(C(=O)N[C@@H](CO)C(=O)N[C@@H](C)C(=O)N[C@@H](C)C(N)=O)NC(=O)[C@H](CC2CCC2)NC(=O)[C@H](CCC(N)=O)NC(=O)[C@H](C)NC(=O)[C@H](Cc2ccc(Cl)c(Cl)c2)NC(=O)[C@H](Cc2ccc(O)cc2)NC(=O)[C@H](CCC(=O)O)NC1=O)[C@@H](C)O [MP-765] (Ac-[Lys(N3)][βAla]LTF[R8]EY[Phe(3,4-Cl2)]AQ[Cba][S5]SAA-NH2; staple 6-13) | > 50.6 | 2.873 | – | 1.83 | 199 | – | – | – | – | – | – | – | Poorly Behaved | Poorly Behaved | – | – | – | – | – |
| CC(=O)N[C@@H](CCCCN=[N+]=[N-])C(=O)NCCC(=O)N[C@@H](CC(C)C)C(=O)N[C@H](C(=O)N[C@@H](CC1CCC1)C(=O)N[C@]1(C)CCCCCCC=CCCC[C@@](C)(C(=O)N[C@@H](CO)C(=O)N[C@@H](C)C(=O)N[C@@H](C)C(N)=O)NC(=O)[C@H](Cc2c[nH]c3ccccc23)NC(=O)[C@H](CCC(N)=O)NC(=O)[C@H](C)NC(=O)[C@H](Cc2ccccc2)NC(=O)[C@H](Cc2ccc(O)cc2)NC(=O)[C@H](CCC(=O)O)NC1=O)[C@@H](C)O [MP-791] (Ac-[Lys(N3)][βAla]LT[Cba][R8]EYFAQW[S5]SAA-NH2; staple 6-13) | 34.6 | 45.16 | 28 (≈ 55.2 µg/mL) | > 10 | 197 | 1.34 | – | – | – | – | – | – | – | – | – | – | – | – | – |
| CC(=O)N[C@@H](CCCCN=[N+]=[N-])C(=O)NCCC(=O)N[C@@H](CC(C)C)C(=O)N[C@H](C(=O)N[C@@H](Cc1ccccc1)C(=O)N[C@]1(C)CCCCCCC=CCCC[C@@](C)(C(=O)NCC(=O)N[C@@H](C)C(=O)N[C@@H](C)C(N)=O)NC(=O)[C@H](CC2CCC2)NC(=O)[C@H](CCC(N)=O)NC(=O)[C@H](C)NC(=O)[C@H](Cc2c[nH]c3ccccc23)NC(=O)[C@H](Cc2ccc(O)cc2)NC(=O)[C@H](CCC(=O)O)NC1=O)[C@@H](C)O [MP-798] (Ac-[Lys(N3)][βAla]LTF[R8]EYWAQ[Cba][S5]GAA-NH2; staple 6-13) | – | – | 80 (≈ 155 µg/mL) | – | 212 | 2.79 | > 50.6 | > 50 | 16.01 | 16.43 | 0.0829 | – | – | – | 1.68 | – | – | – | – |
| CC(=O)N[C@@H](CCCCN=[N+]=[N-])C(=O)NCCC(=O)N[C@@H](CC(C)C)C(=O)N[C@H](C(=O)N[C@@H](Cc1ccccc1)C(=O)N[C@]1(C)CCCCCCC=CCCC[C@@](C)(C(=O)N[C@@H](CCO)C(=O)N[C@@H](CCO)C(=O)N[C@@H](Cc2ccccc2)C(=O)N[C@@H](CCO)C(=O)N[C@@H](CCO)C(=O)N[C@@H](Cc2ccccc2)C(N)=O)NC(=O)[C@H](CC2CCC2)NC(=O)[C@H](CCC(N)=O)NC(=O)[C@H](C)NC(=O)[C@H](Cc2c[nH]c3ccccc23)NC(=O)[C@H](Cc2ccc(O)cc2)NC(=O)[C@H](CCC(=O)O)NC1=O)[C@@H](C)O [MP-802] | – | – | – | 9.16 | – | 3.08 | – | – | – | – | – | – | – | – | – | > 50.7 | P.B. | 4.58 | – |
| CC(=O)N[C@@H](CCCCN=[N+]=[N-])C(=O)NCCC(=O)N[C@@H](CC(C)C)C(=O)N[C@H](C(=O)N[C@@H](Cc1ccccc1)C(=O)N[C@]1(C)CCCCCCC=CCCC[C@@](C)(C(=O)N[C@@H](CO)C(=O)N[C@@H](C)C(=O)N[C@@H](C)C(N)=O)NC(=O)[C@H](C)NC(=O)[C@H](CCC(N)=O)NC(=O)[C@H](C)NC(=O)[C@H](Cc2c[nH]c3ccccc23)NC(=O)[C@H](Cc2ccc(O)cc2)NC(=O)[C@H](CCC(=O)O)NC1=O)[C@@H](C)O [MP-894, AZIDE-ATSP-7041 (CBA10 TO A)] (Ac-[Lys(N3)][βAla]LTF[R8]EYWAQA[S5]SAA-NH2; staple 6-13) | – | – | 93 (≈ 178 µg/mL) | – | 198 | 2.59 | > 50 | – | 3.381 | – | 1.33 | – | – | – | 18.53 | – | – | – | > 50 |
| CC(=O)N[C@@H](CCCCN=[N+]=[N-])C(=O)NCCC(=O)N[C@@H](CC(C)C)C(=O)N[C@H](C(=O)N[C@@H](Cc1ccccc1)C(=O)N[C@]1(C)CCCCCCC=CCCC[C@@](C)(C(=O)N[C@@H](CO)C(=O)N(C)[C@@H](C)C(=O)N[C@@H](C)C(N)=O)NC(=O)[C@H](CC2CCC2)NC(=O)[C@H](CCC(N)=O)NC(=O)[C@H](C)NC(=O)[C@H](Cc2c[nH]c3ccccc23)NC(=O)[C@H](Cc2ccc(O)cc2)NC(=O)[C@H](CCC(=O)O)NC1=O)[C@@H](C)O [MP-3353] | > 50.6 | 1.89 | 33 (≈ 65.5 µg/mL) | 0.232 | 202 | 2.67 | – | – | – | – | – | – | – | – | – | – | – | – | – |
| CC(=O)N[C@@H](CCCCN=[N+]=[N-])C(=O)NCCC(=O)N[C@@H](CC(C)C)C(=O)N[C@H](C)C(=O)N[C@@H](Cc1ccccc1)C(=O)N[C@]1(C)CCCCCCC=CCCC[C@@](C)(C(=O)N[C@@H](CO)C(=O)N[C@@H](C)C(=O)N[C@@H](C)C(N)=O)NC(=O)[C@H](CC2CCC2)NC(=O)[C@H](CCC(N)=O)NC(=O)[C@H](C)NC(=O)[C@H](Cc2c[nH]c3ccccc23)NC(=O)[C@H](Cc2ccc(O)cc2)NC(=O)[C@H](CCC(=O)O)NC1=O [MP-7471] (Ac-[Lys(N3)][βAla]L[dA]F[R8]EYWAQ[Cba][S5]SAA-NH2; staple 6-13) | > 50 | 0.465 | 93.5 (≈ 181 µg/mL) | > 10 | 229 | 2.95 | – | – | – | – | – | – | – | – | – | – | – | – | – |
